The structures appear in SMILES notation. Several values for one entry are separate records, joined by “and”; a condition that tells them apart may be missing. Equal values may be shown once.

Data set [1] can be described thus: Cytotoxicity MTT assay, 24 h, PAR cells. The class given is cell-based. The following applies: mouse, parental (PAR) L5178 mouse T-cell lymphoma cells, read-out: Cytotoxic effect IC50. The method, then: (§1) The cytotoxicity of compounds 7–20 was examined in both aforementioned PAR and MDR mouse T-lymphoma cell lines, using the MTT assay to estimate IC50 values. The selectivity index for cytotoxic action on MDR with respect to PAR cells was calculated (SI, Table 3). […] This range of SI may indicate ABCB1-efflux pump substrate properties for the whole series (7–20), especially distinct in the case of 19 (SI ≤ 0.29), and slightly weaker for 8, 12, 16, and 18.
(§2) L5178 mouse T-cell lymphoma cells (PAR) (ECACC Cat. No. 87111908, obtained from FDA, Silver Spring, MD, USA) were transfected with pHa MDR1/A retrovirus, as previously described by Cornwell et al.. The ABCB1-expressing cell line L5178Y (MDR) was selected by culturing the infected cells with colchicine. The parental L5178 mouse T-cell lymphoma cells and the L5178Y human ABCB1-transfected subline were cultured in McCoy’s 5A medium (Sigma-Aldrich, St Louis, MO, USA) supplemented with 10% heat-inactivated horse serum (Sigma-Aldrich, St Louis, MO, USA), 200 mM L-glutamine (Sigma-Aldrich, St Louis, MO, USA), and a penicillin-streptomycin (Sigma-Aldrich, St Louis, MO, USA) mixture in concentrations of 100 U/L and 10 mg/L, respectively. The cell lines were incubated at 37 °C, in a 5% CO2, 95% air atmosphere.
(§3) Cytotoxicity and antiproliferative assays were performed following the procedure described in the literature. Parental and multidrug-resistant mouse T-lymphoma cells were used to determine the effect of the arylideneimidazolones on the growth of cells. The effects of increasing concentrations of arylideneimidazolones on cell growth were tested in 96-well flat-bottomed microtiter plates. The compounds were diluted in a volume of 100 μL of medium.
(§4) In the case of the mouse T-lymphoma cells, the two-fold serial dilutions were prepared in 100 μL of McCoy’s 5A, horizontally. The parental (PAR) and multidrug-resistant (MDR) mouse T-lymphoma cells were adjusted to a density of 1 × 10^4 cells (for cytotoxic assay) and 6 × 10^3 (for antiproliferative assay) in 100 μL of McCoy’s 5A medium and were added to each well, with the exception of the medium control wells.
(§5) The culture plates were incubated at 37 °C for 24 h (for cytotoxicity assay) and 72 h (for antiproliferative assay); at the end of the incubation period, 20 μL of MTT (thiazolyl blue tetrazolium bromide, Sigma) solution (from a stock solution of 5 mg/mL) were added to each well. After incubation at 37 °C for 4 h, 100 μL of sodium dodecyl sulfate (SDS) (Sigma) solution (10% in 0.01 M HCI) were added to each well and the plates were further incubated at 37 °C overnight. Cell growth was determined by measuring the optical density (OD) at 540/630 nm with a Multiscan EX ELISA reader (Thermo Labsystems, Cheshire, WA, USA).
(§6) Results have been expressed in terms of IC50, defined as the inhibitory dose that reduces the growth of the cells exposed to the tested compounds by 50%, each representing the mean of a minimum of three independent experiments.
For orientation: Formazan colour is commonly taken as a measure of viable cells.

For another data set, the target named is T1, Pgp (ABCB1) ATPase (Homo sapiens, UniProt P08183).
T1 construct: purchased Promega (Madison, WI, USA)
Nature of the data set: Luminescent Pgp-Glo Assay (Pgp ATPase intrinsic activity). The class given is biochemical. The following applies: 100 µM, 40 min, 37 °C; substrates stimulate basal activity (>100%). The method, then: Compounds 11, 12, and 18 were tested at 100 µM on their influence on the ATPase activity of the Pgp pump in the luminescence Pgp-Glo™ Assay, according to previously described methods and protocols. In this assay, luminescence was measured. The Pgp-dependent decreases in luminescence reflect the ATP consumption by Pgp. […] Thus, inhibitors give results <100% of the basal activity, while stimulators/substrates cause a statistically significant increase in the basal activity. […].
The luminescent Pgp-Glo™ Assay System used for determination of the arylideneimidazolone influence on P-glycoprotein activity was purchased from Promega (Madison, WI, USA). The assay was performed in triplicate as described previously. […]. For basal P-gp activity calculation, the membranes were incubated with 100 µM of Na3VO4. The luminescence signal was measured by a microplate reader EnSpire PerkinElmer (Waltham, MA, USA). The statistical significances were calculated using GraphPad Prism 8.0.1 software.

The next data set concerns HEK-293 cells. Nature of the data set: Safety in vitro, MTS assay in HEK-293 cells. The class given is cell-based, human. The following applies: highest used concentrations (50 and 100 µM), 72 h. On the procedure:
(§7) For safety assay, cells were seeded in 96-well plates at a concentration of 1 × 10^4 cells/well and incubated for 24 h at 37 °C in 5% CO2 atmosphere to reach 50% of confluence. Compounds 11, 12, and 18 were diluted into fresh growth medium and added to the cells at the final concentrations of 0.1–100 μM. The positive control DOX (1 μM) was also added and the cells were incubated for 72 h. The MTS (3-(4,5-dimethylthiazol-2-yl)-5-(3-carboxymethoxyphenyl)-2-(4-sulfophenyl)-2H-tetrazolium) reagent (CellTiter 96® AQueous One Solution Cell Proliferation Assay, Promega, Madison, WI, USA) was added next to each well and incubated for 4 h. The absorbance was measured using a microplate reader (EnSpire, PerkinElmer, Waltham, MA USA) at 490 nm to determine the cells’ viability. The statistical significances were calculated using GraphPad Prism 8.0.1 software.

Data set [2] is described as follows: Safety in vitro, MTS assay in HEK-293 cells. The class given is cell-based, human. Conditions: human, HEK-293 cells, 50 µM, read-out: HEK-293 cell viability. On the procedure:
as §7

Data set [3] relates to multidrug-resistant (MDR) mouse T-lymphoma cells. As to the kind of experiment: Antiproliferative MTT assay, 72 h, MDR cells. The class given is cell-based. Conditions: for SI (selectivity index), antiproliferative: MDR with respect to PAR cells; for IC50: Mus musculus, MDR cells, 72 h, MTT, read-out: Antiproliferative effect IC50. On the procedure: (§8) The ABCB1-expressing cell line L5178Y (MDR) was selected by culturing the infected cells with colchicine. The parental L5178 mouse T-cell lymphoma cells and the L5178Y human ABCB1-transfected subline were cultured in McCoy’s 5A medium (Sigma-Aldrich, St Louis, MO, USA) supplemented with 10% heat-inactivated horse serum (Sigma-Aldrich, St Louis, MO, USA), 200 mM L-glutamine (Sigma-Aldrich, St Louis, MO, USA), and a penicillin-streptomycin (Sigma-Aldrich, St Louis, MO, USA) mixture in concentrations of 100 U/L and 10 mg/L, respectively.
as §3, §4
(§9) Cell growth was determined by measuring the optical density (OD) at 540/630 nm with a Multiscan EX ELISA reader (Thermo Labsystems, Cheshire, WA, USA).

In a further data set the target is ABCB1 efflux pump (Homo sapiens, UniProt P08183). As to the kind of experiment: Rhodamine 123 accumulation assay (flow cytometry). Conditions: for efflux pump inhibiting effect relative to verapamil: 20 µM, same concentration as verapamil; for FAR Quotient (%): FAR of compound related to FAR of VER tested at 20 µM; for FAR (fluorescence activity ratio): rhodamine 123 accumulation, MDR vs PAR mouse T-lymphoma cells. Background: A flow cytometer gives signals particle by particle.

The test system of data set [4] is parental (PAR) mouse T-lymphoma cells. As to the kind of experiment: Antiproliferative MTT assay, 72 h, PAR cells. The class given is cell-based. Conditions: read-out: Antiproliferative effect IC50. On the procedure:
as §8, §3, §4, §9

Data set [5] is described as follows: Cytotoxicity MTT assay, 24 h, MDR cells. The class given is cell-based. The following applies: mouse; for IC50 at 24 h: MDR cells, MTT, read-out: Cytotoxic effect IC50; for selectivity ratio at 24 h: cytotoxic action on MDR with respect to PAR cells, read-out: SI (selectivity index), cytotoxicity. The method, then:
as §1, §2, §3, §4, §5, §6

[6] abbreviates: concentration 20 µM, VER values for assay group 1 / 2.

ABCB1 efflux pump, sequence (P08183 whole entry): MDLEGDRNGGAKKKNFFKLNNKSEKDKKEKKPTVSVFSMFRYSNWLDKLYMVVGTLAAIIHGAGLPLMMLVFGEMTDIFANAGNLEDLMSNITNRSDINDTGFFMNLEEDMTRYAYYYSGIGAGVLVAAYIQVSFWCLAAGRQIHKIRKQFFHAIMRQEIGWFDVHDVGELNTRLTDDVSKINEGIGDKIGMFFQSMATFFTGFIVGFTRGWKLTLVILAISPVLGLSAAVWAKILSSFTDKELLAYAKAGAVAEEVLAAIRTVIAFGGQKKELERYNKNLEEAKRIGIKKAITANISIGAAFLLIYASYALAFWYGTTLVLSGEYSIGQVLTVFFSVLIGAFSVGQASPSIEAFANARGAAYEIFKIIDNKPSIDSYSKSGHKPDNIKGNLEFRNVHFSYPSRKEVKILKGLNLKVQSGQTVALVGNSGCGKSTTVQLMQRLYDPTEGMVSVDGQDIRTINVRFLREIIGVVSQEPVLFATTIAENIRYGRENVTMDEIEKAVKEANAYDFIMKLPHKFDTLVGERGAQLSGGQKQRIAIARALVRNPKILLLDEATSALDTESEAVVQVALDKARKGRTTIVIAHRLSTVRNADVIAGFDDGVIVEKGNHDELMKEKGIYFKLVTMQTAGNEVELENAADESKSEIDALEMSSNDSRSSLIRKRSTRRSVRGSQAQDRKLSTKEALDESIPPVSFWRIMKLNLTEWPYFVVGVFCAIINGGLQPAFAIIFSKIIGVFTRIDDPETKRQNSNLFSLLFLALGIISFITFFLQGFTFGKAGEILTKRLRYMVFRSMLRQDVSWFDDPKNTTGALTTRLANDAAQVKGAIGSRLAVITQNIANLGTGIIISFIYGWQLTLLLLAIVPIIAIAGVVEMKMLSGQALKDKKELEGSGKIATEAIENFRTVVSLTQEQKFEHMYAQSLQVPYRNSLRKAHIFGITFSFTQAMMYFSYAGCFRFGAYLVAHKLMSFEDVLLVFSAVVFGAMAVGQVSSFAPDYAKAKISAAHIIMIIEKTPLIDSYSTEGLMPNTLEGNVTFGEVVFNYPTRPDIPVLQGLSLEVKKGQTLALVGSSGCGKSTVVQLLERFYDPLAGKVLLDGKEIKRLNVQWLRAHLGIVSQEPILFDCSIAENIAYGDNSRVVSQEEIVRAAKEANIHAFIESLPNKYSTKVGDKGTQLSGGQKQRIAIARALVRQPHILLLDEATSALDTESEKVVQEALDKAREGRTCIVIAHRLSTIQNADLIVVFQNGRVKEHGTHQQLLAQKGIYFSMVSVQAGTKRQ
T1 sequence (P08183 whole entry): as above
Procedure for ABCB1 efflux pump: The study was carried out on mouse T-lymphoma cell lines, including the parental sensitive line (PAR) and its multidrug-resistant subline (MDR) transfected with the human MDR1 (ABCB1) gene. […] The fluorescence activity ratio (FAR), as a measure of the efflux pump modulating properties, was calculated based on the fluorescence data obtained [23, 24, 25]. […] The parental L5178 mouse T-cell lymphoma cells and the L5178Y human ABCB1-transfected subline were cultured in McCoy’s 5A medium (Sigma-Aldrich, St Louis, MO, USA) supplemented with 10% heat-inactivated horse serum (Sigma-Aldrich, St Louis, MO, USA), 200 mM L-glutamine (Sigma-Aldrich, St Louis, MO, USA), and a penicillin-streptomycin (Sigma-Aldrich, St Louis, MO, USA) mixture in concentrations of 100 U/L and 10 mg/L, respectively.
The potency of the tested compounds as inhibitors of the ABCB1 efflux pump was determined using a fluorescence-based detection system, described previously in the literature [23, 26]. […] The parental (PAR) and multidrug-resistant (MDR) mouse T-lymphoma cells were adjusted to a density of 2 × 10^6/mL, re-suspended in serum-free McCoy’s 5A medium, and distributed in 0.5 mL aliquots into Eppendorf centrifuge tubes. […] The fluorescence intensity of the cell population was measured with a Partec CyFlow flow cytometer (Partec, Munster, Germany). […] The mean fluorescence intensity (%) was calculated for the treated MDR and PAR mouse T-lymphoma cells as compared to the untreated cells.

`Cl.O=C1N=C(N2CCC(N3CCOCC3)CC2)N/C1=C\c1ccc(Oc2ccccc2)cc1` [Compound 11, (Z)-5-(4-Phenoxybenzylidene)-2-(4-morpholinopiperidin-1-yl)-imidazol-4(5H)-one hydrochloride]: the IC50 (usually the concentration at which inhibition is half-maximal) at 24 h in data set [1] turned out to be 39.1 µM; in data set [5], 45.5 µM. For the same compound, on Pgp (ABCB1) ATPase, the “effect on ABCB1 basal activity (Pgp ATPase)” value is “increase in basal activity”. For the same compound, in the data set with HEK-293 cells, the “effect on HEK-293 cell viability” value was “significantly decreased HEK-293 cell viability”. In addition, the viability (commonly a per cent measure of how many cells are alive, often set against a control) at 72 h, 50 µM in data set [2] was 84.2%. Besides, the “SI (selectivity index), antiproliferative” value in data set [3] amounted to 0.97. Moreover, the values for the IC50 in data set [3] and in [4] were 25.6 µM and 24.8 µM, respectively. Also, on ABCB1 efflux pump, the “efflux pump inhibiting effect relative to verapamil” value is ~1.5 fold and 1.38–1.46 fold. The “FAR Quotient (%)” value on ABCB1 efflux pump (concentration 2 µM) was determined as 7.51%; on ABCB1 efflux pump (concentration 20 µM) it was 146.22%. The “FAR (fluorescence activity ratio)” value at ABCB1 efflux pump (concentration 2 µM) is on record as 1.203; on ABCB1 efflux pump (setting [6]), 23.419. For the same compound, the selectivity ratio at 24 h in data set [5] was 0.86.
`Cl.NC1=N/C(=C\c2ccc3c(c2)Cc2ccccc2-3)C(=O)N1CCCN1CCOCC1` [Compound 18, (Z)-5-((9H-Fluoren-2-yl)methylene)-2-amino-3-(3-morpholinopropyl)-imidazol-4(5H)-one hydrochloride]: the melting point (usually the temperature, or range, at which the solid turns liquid) fell in the range of 261 to 263 °C. Besides, the IC50 at 24 h in data set [1] worked out at 16 µM. Besides, the “effect on ABCB1 basal activity (Pgp ATPase)” value at Pgp (ABCB1) ATPase is reported as “increase in basal activity”. Besides, the “effect on HEK-293 cell viability” value in the data set on HEK-293 cells is “significantly decreased HEK-293 cell viability”. In addition, the viability at 72 h, 50 µM in [2] came out at 10.3%. Also, in [3], the “SI (selectivity index), antiproliferative” value was 1.24 and the IC50 turned out to be 10.8 µM. In addition, the “efflux pump inhibiting effect relative to verapamil” value at ABCB1 efflux pump was ~1.5 fold and 1.38–1.46 fold. In addition, at ABCB1 efflux pump (concentration 2 µM), the “FAR Quotient (%)” value is 7.94% and the “FAR (fluorescence activity ratio)” value is 1.038. Besides, on ABCB1 efflux pump (concentration 20 µM), the “FAR Quotient (%)” value was determined as 138.37%. In addition, the “FAR (fluorescence activity ratio)” value on ABCB1 efflux pump (setting [6]) turned out to be 18.095. In addition, in data set [4], the IC50 is 13.4 µM. In data set [5], the IC50 at 24 h came to 27.8 µM and the selectivity ratio at 24 h was 0.58.

The record behind these values is PMC7249047, “Search for ABCB1 Modulators Among 2-Amine-5-Arylideneimidazolones as a New Perspective to Overcome Cancer Multidrug Resistance” (Molecules, 2020).
